Measurements from patent publication US20060014940A1, “Cloning and characterization of slc26a6, slc26a1, and slc26a2 anion exchangers” (priority 2002, published 2006).

Tests used:
mouse SLC26A6b [1] = molecular target: T1, mouse SLC26A6b (Mus musculus, UniProt Q8CIW6, R572P); assay: Radiolabelled anion uptake/exchange in Xenopus oocytes expressing mouse SLC26A6b; assay type: cell-based; settings: for cis-inhibition of SO4 2− transport / cis-inhibition of Cl−—Cl− exchange: 25 mM of the anion; for cis-inhibition of SO4 2− transport: 35SO4 uptake one hour (FIG. 7B); for cis-inhibition of Cl−—Cl− exchange: 36Cl− uptake one hour (FIG. 7A); for exchange of SO4 2− with extracellular anion (trans-stimulation of 35SO4 efflux): 10 mM of the anion, 30 minutes (FIG. 7C); for 36Cl− uptake: 8.3 mM 36Cl
T1 construct: Full-length mouse SLC26A6b and SLC26A 1 cDNAs were cloned into the Xenopus expression vector pGEMHE; expressed in transfected cells; host or cells: Xenopus laevis oocytes injected with in vitro transcribed cRNA (pGEMHE)
T1 sequence (Q8CIW6 24-758 R572P limits assumed): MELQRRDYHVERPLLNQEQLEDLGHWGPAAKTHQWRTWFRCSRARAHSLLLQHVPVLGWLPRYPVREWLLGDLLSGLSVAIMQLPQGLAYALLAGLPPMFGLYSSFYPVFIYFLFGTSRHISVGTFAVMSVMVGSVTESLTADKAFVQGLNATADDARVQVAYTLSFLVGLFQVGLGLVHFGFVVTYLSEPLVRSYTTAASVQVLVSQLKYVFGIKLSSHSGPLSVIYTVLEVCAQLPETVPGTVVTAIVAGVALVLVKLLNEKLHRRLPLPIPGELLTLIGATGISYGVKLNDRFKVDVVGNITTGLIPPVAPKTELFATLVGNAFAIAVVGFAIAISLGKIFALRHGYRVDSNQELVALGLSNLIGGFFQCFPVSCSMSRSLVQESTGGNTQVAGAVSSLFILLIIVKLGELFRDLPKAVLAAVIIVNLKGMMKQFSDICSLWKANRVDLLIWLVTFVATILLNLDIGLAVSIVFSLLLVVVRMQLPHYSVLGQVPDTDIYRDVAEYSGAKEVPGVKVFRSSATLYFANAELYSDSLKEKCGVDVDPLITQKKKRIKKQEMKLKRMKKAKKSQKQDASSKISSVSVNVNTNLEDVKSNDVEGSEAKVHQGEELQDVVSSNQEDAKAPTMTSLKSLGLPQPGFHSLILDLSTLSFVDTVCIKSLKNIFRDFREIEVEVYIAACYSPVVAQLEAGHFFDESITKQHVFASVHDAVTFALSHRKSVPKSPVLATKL
Procedure: (§1) Full-length mouse SLC26A6b and SLC26A 1 cDNAs were cloned into the Xenopus expression vector pGEMHE (Liman et al., 1992). The SLC26A6 and SLC26A1 expression constructs were linearized, and cRNA was transcribed in vitro using T7 RNA polymerase and a […] MMACHINE® transcription kit (Ambion, Inc. of Austin, Tex., United States of America). Defolliculated oocytes were injected with 25 nl to 50 nl of water or with a solution containing cRNA at a concentration of 0.5 μg/μl (12.5 ng to 25 ng per oocyte) using a Nanoliter-2000 injector (WPI Instruments of Sarasota, Fla., United States of America). Oocytes were incubated at 17° C. in 50% Leibovitz's L-15 media supplemented with penicillin/streptomycin (1000 units/ml) and glutamine for 2-3 days for uptake assays.
(§2) For sulphate uptake assays, oocytes were pre-incubated for 20 minutes in chloride-free uptake medium (100 mM NMDG gluconate, 2 mM potassium gluconate, 1 mM calcium gluconate, 1 mM magnesium gluconate, 10 mM HEPES-Tris, pH 6.0 or pH 7.5 as indicated), followed by a 60-minute period for uptake in the same medium supplemented with 1 mM K2^35SO4 (40 μCi/ml). The cells were then washed three times in uptake buffer with 5 mM cold K2SO4 to remove tracer activity in the extracellular fluid. The oocytes were dissolved individually in 10% SDS, and tracer activity was determined by scintillation counting. Uptake of chloride, formate, and oxalate was assayed using the same chloride-free uptake solutions, substituting 8.3 mM ^36Cl, 500 μM [^14C]oxalate, or 50 μM [^14C]formate for labeled sulphate.
(§3) For sulphate exchange and cis-inhibition experiments, the concentration of NMDG-gluconate in the uptake solution was adjusted to maintain isotonic osmolality, which was confirmed experimentally using a FISKE® osmometer (Fiske Associates, Inc. of Bethel, Conn., United States of America).

xSLC26A6 = settings: FIG. 17
Description: (§4) One or more of these xPDS genes likely corresponds to the Xenopus descendant of mammalian SLC26A3.

xPDS2 = assay: Anion transport in Xenopus oocytes expressing xPDS2; assay type: cell-based, Xenopus laevis
Description: as §4

xPDS3 = assay: Anion transport in Xenopus oocytes expressing xPDS3; assay type: cell-based, Xenopus laevis
Description: as §4

mouse SLC26A2 = mouse SLC26A2 (Mus musculus, UniProt Q62273)
mouse SLC26A2, sequence (Q62273 whole entry): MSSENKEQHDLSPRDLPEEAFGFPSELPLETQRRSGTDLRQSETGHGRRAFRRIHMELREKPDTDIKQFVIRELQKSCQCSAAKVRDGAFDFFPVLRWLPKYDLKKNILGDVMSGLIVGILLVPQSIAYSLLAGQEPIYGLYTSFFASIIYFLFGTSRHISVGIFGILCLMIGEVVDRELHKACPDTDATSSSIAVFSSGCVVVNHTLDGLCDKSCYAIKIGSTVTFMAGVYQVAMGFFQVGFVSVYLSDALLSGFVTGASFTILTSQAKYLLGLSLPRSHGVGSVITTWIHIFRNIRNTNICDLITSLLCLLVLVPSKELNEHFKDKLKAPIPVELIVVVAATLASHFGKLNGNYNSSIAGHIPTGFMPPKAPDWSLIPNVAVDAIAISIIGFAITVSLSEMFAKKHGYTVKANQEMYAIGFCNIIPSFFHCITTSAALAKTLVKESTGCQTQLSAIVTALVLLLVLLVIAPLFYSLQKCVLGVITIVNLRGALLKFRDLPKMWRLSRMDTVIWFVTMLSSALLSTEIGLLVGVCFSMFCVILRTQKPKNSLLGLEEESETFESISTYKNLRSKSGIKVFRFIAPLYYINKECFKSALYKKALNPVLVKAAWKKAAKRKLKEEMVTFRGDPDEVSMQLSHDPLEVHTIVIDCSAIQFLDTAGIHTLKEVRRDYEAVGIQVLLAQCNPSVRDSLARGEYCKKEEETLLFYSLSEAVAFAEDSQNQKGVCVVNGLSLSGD
Procedure: as §2

human SLC26A6 = tested on: human SLC26A6
Description: FIG. 13 depicts chloride uptake in Xenopus oocytes expressing Xenopus xPDS2, human SLC26A3 (DRA), mouse Slc26a6, and human SLC26A6, with extracellular pH of 7.5 (open bars) or 6.0 (dark fill).
FIG. 15 depicts sulphate transport mediated by Xenopus oocytes expressing human SLC26A6, at varying concentrations of extracellular SO4^2− and constant amounts of tracer ^35SO4^2−.
A feature of the mammalian SLC26 gene family is relatively low conservation between orthologs in mouse and man; the percent amino acid identity ranges from a low of 76% (SLC26A8) to a high of 90% (SLC26A9), versus the reported median of 86% for mouse and human orthologous genes. Makalowski, W. & Boguski, 1998. This sequence divergence is reflected in functional variation, which can be exploited for structure-function analysis.

mouse SLC26A1 = molecular target: T2, mouse SLC26A1 (Mus musculus, UniProt P58735, C691Y); assay: Radiolabelled anion uptake in Xenopus oocytes expressing mouse SLC26A1; assay type: cell-based; settings: for effect of extracellular anion on SO4 2− transport via SLC26A1: 25 mM of the anion (FIG. 9A, 6C); for transport via SLC26A1: FIG. 6B, FIG. 8B
T2 construct: Full-length mouse SLC26A6b and SLC26A 1 cDNAs were cloned into the Xenopus expression vector pGEMHE; expressed in transfected cells; host or cells: Xenopus laevis oocytes injected with in vitro transcribed cRNA (pGEMHE)
T2 sequence (P58735 1-704 C691Y): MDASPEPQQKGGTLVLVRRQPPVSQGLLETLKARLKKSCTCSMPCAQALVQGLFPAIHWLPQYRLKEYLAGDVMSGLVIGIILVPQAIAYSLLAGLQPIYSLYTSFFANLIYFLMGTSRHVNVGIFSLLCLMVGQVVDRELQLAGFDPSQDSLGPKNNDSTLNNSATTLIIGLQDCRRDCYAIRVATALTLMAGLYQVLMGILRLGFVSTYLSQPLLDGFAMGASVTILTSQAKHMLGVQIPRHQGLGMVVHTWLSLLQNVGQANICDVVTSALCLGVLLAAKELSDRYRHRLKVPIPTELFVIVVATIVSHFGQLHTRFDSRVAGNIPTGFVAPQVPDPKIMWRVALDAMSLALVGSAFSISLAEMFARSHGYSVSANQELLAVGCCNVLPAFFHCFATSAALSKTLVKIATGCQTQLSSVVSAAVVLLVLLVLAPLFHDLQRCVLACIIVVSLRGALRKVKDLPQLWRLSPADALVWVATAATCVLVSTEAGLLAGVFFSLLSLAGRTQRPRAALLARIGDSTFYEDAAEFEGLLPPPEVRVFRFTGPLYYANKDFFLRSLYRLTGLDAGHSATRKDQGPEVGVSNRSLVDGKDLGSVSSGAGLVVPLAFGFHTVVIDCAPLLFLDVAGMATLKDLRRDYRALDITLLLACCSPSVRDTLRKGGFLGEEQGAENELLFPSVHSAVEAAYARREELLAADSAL
Procedure: as §1, §2, §3

xPDS1 = assay: Anion transport in Xenopus oocytes expressing xPDS1; assay type: cell-based, Xenopus laevis
Description: as §4

mouse SLC26A6b [2] = molecular target: T1, mouse SLC26A6b; assay: Radiolabelled anion uptake/exchange in Xenopus oocytes expressing mouse SLC26A6b; assay type: cell-based; settings: pH 7.4; DIDS 1 mM (FIG. 6A)
rat SLC26A1 = rat SLC26A1 (Rattus norvegicus, UniProt P45380); settings: Satoh et al., 1998; cited from earlier work
rat SLC26A1, sequence (P45380 whole entry): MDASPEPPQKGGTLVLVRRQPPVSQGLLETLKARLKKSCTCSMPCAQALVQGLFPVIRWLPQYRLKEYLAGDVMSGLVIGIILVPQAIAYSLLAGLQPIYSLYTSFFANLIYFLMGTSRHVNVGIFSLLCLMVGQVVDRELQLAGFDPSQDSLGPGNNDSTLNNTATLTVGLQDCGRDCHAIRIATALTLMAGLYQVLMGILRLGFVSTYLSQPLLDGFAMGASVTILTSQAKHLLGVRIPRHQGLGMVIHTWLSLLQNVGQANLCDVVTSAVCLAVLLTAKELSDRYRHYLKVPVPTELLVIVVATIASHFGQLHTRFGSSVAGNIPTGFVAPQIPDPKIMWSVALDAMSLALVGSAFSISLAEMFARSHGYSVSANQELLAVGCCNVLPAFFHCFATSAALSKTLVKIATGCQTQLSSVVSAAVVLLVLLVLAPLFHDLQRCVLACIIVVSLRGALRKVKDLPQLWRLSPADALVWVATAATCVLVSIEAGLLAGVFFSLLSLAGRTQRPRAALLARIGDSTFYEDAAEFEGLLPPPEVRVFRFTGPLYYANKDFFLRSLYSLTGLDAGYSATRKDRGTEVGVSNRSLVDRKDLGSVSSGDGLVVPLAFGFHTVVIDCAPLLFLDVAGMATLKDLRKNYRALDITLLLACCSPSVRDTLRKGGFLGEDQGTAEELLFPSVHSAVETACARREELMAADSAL

SLC26A1 = SLC26A1 (Rattus norvegicus, UniProt P45380); settings: Markovich & James, 1999; cited from earlier work
SLC26A1, sequence (P45380 whole entry): as above

Br [Br^−]
cis-inhibition of SO4 2− transport (mouse SLC26A6b [1]): cis-inhibitory
cis-inhibition of Cl−—Cl− exchange (mouse SLC26A6b [1]): cis-inhibitory

Cl [Cl^−, chloride]
Cl− transport (xSLC26A6): robust
Cl− transport (xPDS2; FIG. 17): robust
Cl− transport (xPDS3; FIG. 17): robust
effect of extracellular Cl− on 35SO4 2− uptake (mouse SLC26A2; 25 mM Cl− (FIG. 10B)): significantly inhibited
exchange of SO4 2− with extracellular anion (trans-stimulation of 35SO4 efflux) (mouse SLC26A6b [1]): clearly mediated exchange
36Cl− uptake (mouse SLC26A6b [1]; pH 6.0): 4193±109 pmol/oocyte/hour
36Cl− uptake (mouse SLC26A6b [1]; pH 7.4): 4345±243 pmol/oocyte/hour
Cl− transport (human SLC26A6; FIG. 13): clearly transports
effect of extracellular anion on SO4 2− transport via SLC26A1 (mouse SLC26A1): much higher
transport via SLC26A1 (mouse SLC26A1): not transported
Cl−—Cl− exchange (mouse SLC26A1; presence or absence of 25 mM SO4 2−): minimal
Cl− transport (xPDS1; FIG. 17): robust

O=S(=O)(O)c1cc(N=C=S)ccc1C=Cc1ccc(N=C=S)cc1S(=O)(=O)O [DIDS, 4,4′-diisothiocyanatostilbene-2,2′-disulfonic acid]
sulphate uptake, sensitivity to DIDS (mouse SLC26A6b [1]; pH 6.0, DIDS 1 mM (FIG. 6A)): 101±10 pmol/oocyte/hour
sulphate uptake, sensitivity to DIDS (mouse SLC26A6b [2]): 301±24 pmol/oocyte/hour

O=C(O)O [HCO3^−, bicarbonate]
activation of SO4 2− uptake (rat SLC26A1): does not activate

I [I^−, iodide]
cis-inhibition of SO4 2− transport (mouse SLC26A6b [1]): cis-inhibitory
cis-inhibition of Cl−—Cl− exchange (mouse SLC26A6b [1]): cis-inhibitory

O=CO [formate]
formate uptake (mouse SLC26A6b [1]; 50 μM [14C]formate (FIG. 8B)): 45±5 pmol/oocyte/hour
exchange of SO4 2− with extracellular anion (trans-stimulation of 35SO4 efflux) (mouse SLC26A6b [1]): clearly mediated exchange
cis-inhibition of Cl−—Cl− exchange (mouse SLC26A6b [1]): significantly inhibited
effect of extracellular anion on SO4 2− transport via SLC26A1 (mouse SLC26A1): activate
transport via SLC26A1 (mouse SLC26A1): not transported
formate uptake (mouse SLC26A1; SLC26A1-injected oocytes): 7 pmol/oocyte/h

CC(O)C(=O)O (stereo not drawn) [lactate]
cis-inhibition of Cl−—Cl− exchange (mouse SLC26A6b [1]): not lactate significantly inhibited
effect of extracellular anion on SO4 2− transport via SLC26A1 (mouse SLC26A1): activate

O=S(=O)(O)O [sulphate]
SO4 2− transport (xPDS2): none of the xPDS clones transport
SO4 2− transport (xPDS3): none of the xPDS clones transport
35SO4 2− uptake (mouse SLC26A2; absence of extracellular Cl− (FIG. 10A)): robust
35SO4 2− uptake at pH 6.0 (mouse SLC26A2; pH 6.0 versus pH 7.4 (FIG. 10A)): increased significantly
exchange of SO4 2− with extracellular anion (trans-stimulation of 35SO4 efflux) (mouse SLC26A6b [1]): clearly mediated exchange
cis-inhibition of Cl−—Cl− exchange (mouse SLC26A6b [1]): significantly inhibited
sulphate uptake at pH 7.4 versus pH 6.0 (mouse SLC26A6b [1]; SLC26A6b-injected oocytes): not significantly altered
sulphate uptake independent of Na+ (mouse SLC26A6b [1]; SLC26A6b-injected oocytes, Na+-free): 652±57 pmol/oocyte/hour
sulphate uptake independent of Cl− (mouse SLC26A6b [1]; SLC26A6b-injected oocytes, pH 7.4, Cl−-free medium, 1 mM 35SO4): 602±0 pmol/oocyte/hour
absolute rate of SO4 2− transport (mouse SLC26A6b [1]; mouse Slc26a6, increasing extracellular SO4 2− (FIG. 14)): ~4,000 pmol/oocyte/hr
absolute rate of SO4 2− transport (human SLC26A6; human SLC26A6, increasing extracellular SO4 2− (FIG. 15)): ~200 pmol/oocyte/hr
effect of extracellular anion on SO4 2− transport via SLC26A1 (mouse SLC26A1): strongly cis-inhibitory
SO4 2− uptake (mouse SLC26A1; SLC26A1-injected oocytes (FIG. 6A)): 72±2 pmol/oocyte/h
SO4 2− transport (xPDS1): none of the xPDS clones transport

mercury
effect on maximal sulphate transport via SLC26A1 (SLC26A1): strongly inhibited
